Read-outs that look alike come from different tables or passages of the source.
Legend:
[1] = biological target: T1, Full-length wild type HIV-1 integrase (SF1) (Human immunodeficiency virus type 1 group M subtype B, UniProt P04585); assay: Integrase strand-transfer scintillation proximity assay; type: biochemical; details: strand transfer, 50 min at 37° C., 246 nM integrase, 50 nM host DNA; read-out: IC50
T1 construct: made in house; host or cells: E. coli BL21 (DE3)
Text: Integrase Strand-Transfer Scintillation Proximity Assay Oligonucleotides
Oligonucleotide #1-5′-(biotin)[…]-3′ (SEQ ID NO: 1) and oligonucleotide #2-5′-[…]-3′ (SEQ ID NO: 2), were synthesized by TriLink BioTechnologies, Inc. (San Diego, Calif.). The annealed product represents preprocessed viral ds-DNA derived from the LTR U5 sequence of the viral genome. A ds-DNA control to test for non-specific interactions was made using a 3′ di-deoxy derivative of oligonucleotide #1 annealed to oligonucleotide #2. The CA overhang at the 5′ end of the non-biotinylated strand of the ds-DNA was created artificially by using a complimentary DNA oligonucleotide shortened by 2 base pairs. This configuration eliminates the requisite 3′ processing step of the integrase enzyme prior to the strand-transfer mechanism. Host ds-DNA was prepared as an unlabeled and [^3H]-thymidine labeled product from annealed oligonucleotide #3-5-[…]-3′ (SEQ ID NO: 3), and oligonucleotide #4-5′-[…]-3′ (SEQ ID NO: 4), both synthesized by TriLink BioTechnologies, Inc. (San Diego, Calif.). The annealed product had overhanging 3′ ends of poly(dA). Host DNA was custom radiolabeled by PerkinElmer Life Sciences Inc. (Boston, Mass.) using an enzymatic method with a 12/1 ratio of [methyl-3H]dTTP/cold ds-DNA to yield 5′-blunt end ds-DNA with a specific activity of >900 Ci/mmol. The radiolabeled product was purified using a NENSORB cartridge and stored in stabilized aqueous solution (PerkinElmer). The final radiolabeled product had six [^3H]-thymidine nucleotides at both 5′ ends of the host ds-DNA. Reagents: Streptavidin-coated polyvinyltoluene (PVT) SPA beads were purchased from Amersham Biosciences (Piscataway, N.J.). Cesium chloride was purchased from Shelton Scientific, Inc. (Shelton, Conn.). White, polystyrene, flat-bottom, non-binding surface, 96-well plates were purchased from Corning. All other buffer components were purchased from Sigma (St. Louis, Mo.) unless otherwise indicated.
Enzyme Construction: Full-length wild type HIV-1 integrase (SF1) sequence (amino acids 1-288) was constructed in a pET24a vector (Novagen, Madison, Wis.). The construct was confirmed through DNA sequencing. Enzyme Purification: Full length wild-type HIV Integrase was expressed in E. coli BL21 (DE3) cells and induced with 1 mM isopropyl-1 thio-β-D-galactopyranoside (IPTG) when cells reached an optical density between 0.8-1.0 at 600 nm. Cells were lysed by microfluidation in 50 mM HEPES pH 7.0, 75 mM NaCl, 5 mM DTT, 1 mM 4-(2-Aminoethyl)benzenesulfonylfluoride HCl (AEBSF). Lysate was then centrifuged 20 minutes at 11 k rpm in GSA rotor in Sorvall RC-5B at 4° C. Supernant was discarded and pellet resuspended in 50 mM HEPES pH 7.0, 750 mM NaCl, 5 mM DTT, 1 mM AEBSF and homogenized in a 40 mL Dounce homogenizer for 20 minutes on ice. Homogenate was then centrifuged 20 minutes at 11 k rpm in SS34 rotor in Sorvall RC-5B at 4° C. Supernant was discarded and pellet resuspended in 50 mM HEPES pH 7.0, 750 mM NaCl, 25 mM CHAPS, 5 mM DTT, 1 mM AEBSF. Preparation was then centrifuged 20 minutes at 11 k rpm in SS34 rotor in Sorvall RC-5B at 4° C. Supernant was then diluted 1:1 with 50 mM HEPES pH 7.0, 25 mM CHAPS, 1 mM DTT, 1 mM AEBSF and loaded onto a Q-Sepharose column pre-equilibrated with 50 mM HEPES, pH 7.0, 375 mM NaCl, 25 mM CHAPS, 1 mM DTT, 1 mM AEBSF. The flow through peak was collected and NaCl diluted to 0.1 M with 50 mM HEPES pH 7.0, 25 mM CHAPS, 1 mM DTT, 0.5 mM AEBSF and loaded onto a SP-Sepharose column pre-equilibrated with 50 mM HEPES pH 7.0, 100 mM NaCl, 25 mM CHAPS, 1 mM DTT, 0.5 mM AEBSF. After washing the column with the equilibration buffer, a 100 to 400 mM NaCl gradient was run. The eluted integrase was concentrated and run on a S-300 gel diffusion column using 50 mM HEPES pH 7.0, 500 mM NaCl, 25 mM CHAPS, 1 mM DTT, 0.5 mM AEBSF. The peak from this column was concentrated to 0.76 mg/mL and stored at −70° C. and later used for strand transfer assays. […]

[2] = tested on: RF strain of HIV-1 in CEM-SS cells; assay: HIV-1 cell protection assay (XTT dye reduction); type: cell-based
Experimental: HIV-1 Cell Protection Assay
The antiviral activities of potential modulator compounds (test compounds) were determined in HIV-1 cell protection assays using the RF strain of HIV-1, CEM-SS cells, and the XTT dye reduction method (Weislow, O. S. et al., J. Natl. Cancer Inst. 81: 577-586 (1989)). Subject cells were infected with HIV-1 RF virus at an moi of 0.025 to 0.819 or mock infected with medium only and added at 2×10^4 cells per well into 96 well plates containing half-log dilutions of test compounds. Six days later, 50 μl of XTT solution (1 mg/ml XTT tetrazolium and […] phenazine methosulfate) were added to the wells and the plates were reincubated for four hours. Viability, as determined by the amount of XTT formazan produced, was quantified spectrophotometrically by absorbance at 450 nm. Data from CPE assays were expressed as the percent of formazan produced in compound-treated cells compared to formazan produced in wells of uninfected, compound-free cells. […] The therapeutic index was calculated by dividing the cytotoxicity (CC50) by the antiviral activity (EC50).

[3] = Human immunodeficiency virus 1, CEM-SS, 144 h, HIV-1 RF, CEM-SS cells, XTT dye reduction, six days, read-out: EC50
[4] = Human immunodeficiency virus 1, CEM-SS, 144 h

Q: `O=C(NO)c1cc2c(CN3CC[C@@H]4C(=O)NC[C@@H]4C3)cn(Cc3ccc(F)cc3F)c2cn1` (racemic) [Example 16, rac 1-(2,4-difluorobenzyl)-N-hydroxy-3-{[(3aR*,7aS*)-1-oxooctahydro-5H-pyrrolo[3,4-c]pyridin-5-yl]methyl}-1H-pyrrolo[2,3-c]pyridine-5-carboxamide] was tested. Which IC50 [1] did it give?
A: 108 nM

Q: What about the EC50 [2, 3] of the same compound?
A: 12 nM

Q: `CONC(=O)c1cc2c(CN3CC[C@@H]4C(=O)NC[C@@H]4C3)cn(Cc3ccc(F)cc3F)c2cn1` (racemic) [Example 17, rac 1-(2,4-Difluorobenzyl)-N-methoxy-3-{[(3aR*,7aS*)-1-oxooctahydro-5H-pyrrolo[3,4-c]pyridin-5-yl]methyl}-1H-pyrrolo[2,3-c]pyridine-5-carboxamide] was tested. Which IC50 [1] did it give?
A: 300 nM

Q: What about the EC50 [2, 3] of the same compound?
A: 25 nM

Q: Which IC50 [1] does the source give for `CN(O)C(=O)c1cc2c(CN3CC[C@@H]4C(=O)NC[C@@H]4C3)cn(Cc3ccc(F)cc3F)c2cn1` (racemic) [Example 18, rac 1-(2,4-difluorobenzyl)-N-hydroxy-N-methyl-3-{[(3aR*,7aS*)-1-oxooctahydro-5H-pyrrolo[3,4-c]pyridin-5-yl]methyl}-1H-pyrrolo[2,3-c]pyridine-5-carboxamide] here?
A: 470 nM

Q: What about the EC50 [2, 3] of the same compound?
A: 49 nM

Q: With `O=C(NO)c1cc2c(CNC3CC3c3ccccc3)cn(Cc3ccc(F)cc3F)c2cn1` (racemic) [Example 75, rac-1-(2,4-Difluorobenzyl)-N-hydroxy-3-({[(1S,2R)-2-phenylcyclopropyl]amino}methyl)-1H-pyrrolo[2,3-c]pyridine-5-carboxamide] as the compound, how does the IC50 [1] read?
A: 382 nM

Q: What about the EC50 [2, 3] of the same compound?
A: 14 nM

Q: What does the source list for `CN(O)C(=O)c1cc2c(CN3CC[C@@H]4CNC(=O)[C@@H]4C3)cn(Cc3ccc(F)cc3F)c2cn1` (relative stereo) [Example 112]?
A: IC50 [1]: 62 nM; EC50 [2, 3]: 597 nM

Q: How did the IC50 [1] turn out when `C[C@@H](NCc1cn(Cc2ccc(F)cc2F)c2cnc(C(=O)NO)cc12)[C@@H](O)c1ccccc1` (stereo in doubt) [Example 86, 1-(2,4-Difluorobenzyl)-N-hydroxy-3-{[(2-hydroxy-1-methyl-2-phenylethyl)amino]methyl}-1H-pyrrolo[2,3-c]pyridine-5-carboxamide] was run?
A: 314 nM

Q: And the EC50 [2, 3]?
A: 11 nM

Q: `CCOC(=O)N1C2CC[C@@H]1CC(NCc1cn(Cc3ccc(F)cc3F)c3cnc(C(=O)NO)cc13)C2` (stereo in doubt) [Example 97, Ethyl (1R,5S)-3-[({1-(2,4-difluorobenzyl)-5-[(hydroxyamino)carbonyl]-1H-pyrrolo[2,3-c]pyridin-3-yl}methyl)amino]-8-azabicyclo[3.2.1]octane-8-carboxylate] was tested. Which IC50 [1] did it give?
A: 311 nM

Q: What about the EC50 [2, 4] of the same compound?
A: 20 nM

Q: Which results are given for `O=C(NO)c1cc2ccn(Cc3ccc(F)cc3F)c2cn1` [Example 1, 1-(2,4-Difluorobenzyl)-N-hydroxy-1H-pyrrolo[2,3-c]pyridine-5-carboxamide]?
A: IC50 [1]: 84 nM; EC50 [2, 3]: 7.95 nM

Q: What does the source list for `O=C(NO)c1cc2c(CN3CCOCC3)cn(Cc3ccc(F)cc3F)c2cn1` [Example 2, 1-(2,4-difluorobenzyl)-N-hydroxy-3-(morpholin-4-ylmethyl)-1H-pyrrolo[2,3-c]pyridine-5-carboxamide]?
A: IC50 [1]: 52.3 nM; EC50 [2, 3]: 68 nM

Q: Which IC50 [1] does the source give for `O=C(NO)c1cc2c(CNCCO)cn(Cc3ccc(F)cc3F)c2cn1` [Example 3] here?
A: 195 nM

Q: What about the EC50 ([2]; HIV-1 RF, CEM-SS cells, XTT dye reduction, six days, read-out: EC50) of the same compound?
A: 160 nM

Q: With `CN(C)CCCNCc1cn(Cc2ccc(F)cc2F)c2cnc(C(=O)NO)cc12` [Example 4] as the compound, how does the IC50 [1] read?
A: 343 nM

Q: What about the EC50 [2, 3] of the same compound?
A: 85 nM

Q: Which results are given for `CN1CCN(Cc2cn(Cc3ccc(F)cc3F)c3cnc(C(=O)NO)cc23)CC1` [Example 5, 1-(2,4-Difluorobenzyl)-N-hydroxy-3-[(4-methylpiperazin-1-yl)methyl]-1H pyrrolo[2,3-c]pyridine-5-carboxamide]?
A: IC50 [1]: 153 nM; EC50 [2, 3]: 13 nM

Q: Which IC50 [1] does the source give for `O=C(NO)c1cc2c(CN3CCCCC3)cn(Cc3ccc(F)cc3F)c2cn1` [Example 6, 1-(2,4-difluorobenzyl)-N-hydroxy-3-(piperidin-1-ylmethyl)-1H-pyrrolo[2,3-c]pyridine-5-carboxamide] here?
A: 108 nM

Q: What about the EC50 [2, 3] of the same compound?
A: 5.2 nM

Q: What does the source list for `CN(O)C(=O)c1cc2c(CN3CCOCC3)cn(Cc3ccc(F)cc3F)c2cn1` [Example 7, 1-(2,4-Difluorobenzyl)-A-hydroxy-N-methyl-3-(morpholin-4-ylmethyl)-1H-pyrrolo[2,3-c]pyridine-5-carboxamide]?
A: IC50 [1]: 140 nM; EC50 [2, 3]: 21 nM

Q: `O=C(NO)c1cc2cnn(Cc3ccc(F)cc3)c2cn1` [Example 35, 1-(4-Fluorobenzyl)-N-hydroxy-1H-pyrazolo[3,4-c]pyridine-5-carboxamide] was tested. Which IC50 [1] did it give?
A: 446 nM

Q: With `C=Cc1c(C(=O)NO)ncc2c1ccn2Cc1ccc(F)cc1` [Example 39, 1-(4-Fluorobenzyl)-N-hydroxy-4-vinyl-1H-pyrrolo[2,3-c]pyridine-5-carboxamide] as the compound, how does the EC50 [2, 3] read?
A: 3.05 nM

Q: With `CCCN(CCO)Cc1cn(Cc2ccc(F)cc2)c2cnc(C(=O)NOCC)cc12` [Example 115, N-ethoxy-1-(4-fluorobenzyl)-3-{[(2-hydroxyethyl)(propyl)amino]methyl}-1H-pyrrolo[2,3-c]pyridine-5-carboxamide] as the compound, how does the EC50 [2, 3] read?
A: 3700 nM

Q: For `CCONC(=O)c1cc2c(CN(C)CCCN(C)C)cn(Cc3ccc(F)cc3)c2cn1` [Example 116, 3-{[[3-(Dimethylamino)propyl](methyl)amino]methyl}-N-ethoxy-1-(4-fluorobenzyl)-1H-pyrrolo[2,3-c]pyridine-5-carboxamide], which EC50 [2, 3] is on record?
A: 3900 nM

Q: How did the EC50 [2, 3] turn out when `CCOCCOCc1cn(Cc2ccc(F)cc2)c2cnc(C(=O)NOC)cc12` [Example 121, 3-[(2-Ethoxyethoxy)methyl]-1-(4-fluorobenzyl)-N-methoxy-1H-pyrrolo[2,3-c]pyridine-5-carboxamide] was run?
A: 512 nM

Q: With `COCc1cn(Cc2ccc(F)cc2)c2cnc(C(=O)N(C)O)cc12` [Example 122, 1-(4-Fluorobenzyl)-AN-hydroxy-3-(methoxymethyl)-N-methyl-1H-pyrrolo[2,3-c]pyridine-5-carboxamide] as the compound, how does the EC50 [2, 4] read?
A: 242 nM
